Measurements taken from the NIST ThermoML archive (doi:10.1021/je800571y).
± gives the expanded uncertainty stated by the source.

Experiments:
[1] = xn = mol fraction of the nth substance listed; details: 101 kPa, Liquid
[2] = 101 kPa, Liquid

| SMILES | mass density ([1]; 293.15 K, x2 = 0) [kg/m3] | viscosity ([1]; 293.15 K, x2 = 0) [mPa·s] | mass density ([1]; 298.15 K, x2 = 0) [kg/m3] | viscosity ([1]; 298.15 K, x2 = 0) [mPa·s] | mass density ([1]; 303.15 K, x2 = 0) [kg/m3] | viscosity ([1]; 303.15 K, x2 = 0) [mPa·s] | mass density ([1]; 308.15 K, x2 = 0) [kg/m3] | viscosity ([1]; 308.15 K, x2 = 0) [mPa·s] | mass density ([1]; 313.15 K, x2 = 0) [kg/m3] | viscosity ([1]; 313.15 K, x2 = 0) [mPa·s] | mass density ([2]; 293.15 K) [kg/m3] | viscosity ([2]; 293.15 K) [mPa·s] | mass density ([2]; 298.15 K) [kg/m3] | viscosity ([2]; 298.15 K) [mPa·s] | mass density ([2]; 303.15 K) [kg/m3] | viscosity ([2]; 303.15 K) [mPa·s] | mass density ([2]; 308.15 K) [kg/m3] | viscosity ([2]; 308.15 K) [mPa·s] | mass density ([2]; 313.15 K) [kg/m3] | viscosity ([2]; 313.15 K) [mPa·s] | also measured |
| --- | --- | --- | --- | --- | --- | --- | --- | --- | --- | --- | --- | --- | --- | --- | --- | --- | --- | --- | --- | --- | --- |
| CC(C)O [propan-2-ol] + CCC(C)=O | 785.45 ± 0.99 | 2.226 ± 0.41 | 781.26 ± 0.98 | 1.91 ± 0.35 | 777.97 ± 1.1 | 1.737 ± 0.32 | 772.59 ± 1.1 | 1.524 ± 0.29 | 768.32 ± 1.1 | 1.347 ± 0.26 | – | – | – | – | – | – | – | – | – | – | – |
| CCC(C)O (centres undefined) [butan-2-ol] + CCC(C)=O | 806.48 ± 1 | 3.632 ± 0.64 | 802.35 ± 1 | 2.998 ± 0.54 | 798.96 ± 1.1 | 2.498 ± 0.45 | 794.18 ± 1.1 | 2.054 ± 0.38 | 790.07 ± 1.1 | 1.799 ± 0.33 | – | – | – | – | – | – | – | – | – | – | – |
| CCC(C)(C)O [2-methylbutan-2-ol] | – | – | – | – | – | – | – | – | – | – | 809.61 ± 1.1 | 5.108 ± 0.88 | 805.01 ± 1.1 | 4.474 ± 0.78 | 800.41 ± 1.1 | 3.909 ± 0.69 | 795.81 ± 1.1 | 3.387 ± 0.6 | 791.21 ± 1.2 | 2.909 ± 0.52 | – |
| CC(C)CO [2-methyl-1-propanol] + CCC(C)=O | 801.68 ± 0.98 | 4.037 ± 0.71 | 797.8 ± 1 | 3.33 ± 0.59 | 794.16 ± 1.1 | 2.875 ± 0.52 | 790.06 ± 1.1 | 2.421 ± 0.44 | 786.7 ± 1.1 | 1.967 ± 0.36 | – | – | – | – | – | – | – | – | – | – | – |
| CC(C)CO [2-methyl-1-propanol] | – | – | – | – | – | – | – | – | – | – | 801.68 ± 0.98 | 4.037 ± 0.71 | 797.8 ± 1 | 3.33 ± 0.59 | 794.16 ± 1.1 | 2.875 ± 0.52 | 790.06 ± 1.1 | 2.421 ± 0.44 | 786.7 ± 1.1 | 1.967 ± 0.36 | – |
| CC(C)O [propan-2-ol] | – | – | – | – | – | – | – | – | – | – | 785.45 ± 0.99 | 2.226 ± 0.41 | 781.26 ± 0.98 | 1.91 ± 0.35 | 777.97 ± 1.1 | 1.737 ± 0.32 | 772.59 ± 1.1 | 1.524 ± 0.29 | 768.32 ± 1.1 | 1.347 ± 0.26 | – |
| CCC(C)O (centres undefined) [butan-2-ol] | – | – | – | – | – | – | – | – | – | – | 806.48 ± 1 | 3.632 ± 0.64 | 802.35 ± 1 | 2.998 ± 0.54 | 798.96 ± 1.1 | 2.498 ± 0.45 | 794.18 ± 1.1 | 2.054 ± 0.38 | 790.07 ± 1.1 | 1.799 ± 0.33 | – |
| CCC(C)=O [butanone] + CCC(C)(C)O | – | – | – | – | – | – | – | – | – | – | – | – | – | – | – | – | – | – | – | – | mass density ([1]; 293.15 K, x1 = 1): 804.92 ± 1.1 kg/m3; viscosity ([1]; 293.15 K, x1 = 1): 0.3956 ± 0.093 mPa·s; mass density ([1]; 298.15 K, x1 = 1): 799.7 ± 1.1 kg/m3; viscosity ([1]; 298.15 K, x1 = 1): 0.2828 ± 0.074 mPa·s; mass density ([1]; 303.15 K, x1 = 1): 794.81 ± 1.1 kg/m3; viscosity ([1]; 303.15 K, x1 = 1): 0.2666 ± 0.071 mPa·s; mass density ([1]; 308.15 K, x1 = 1): 789.78 ± 1.2 kg/m3; viscosity ([1]; 308.15 K, x1 = 1): 0.2601 ± 0.07 mPa·s; mass density ([1]; 313.15 K, x1 = 1): 784.32 ± 1.2 kg/m3; viscosity ([1]; 313.15 K, x1 = 1): 0.2545 ± 0.069 mPa·s |
| CCC(C)=O [butanone] | – | – | – | – | – | – | – | – | – | – | 804.92 ± 1.1 | – | 799.7 ± 1.1 | 0.2828 ± 0.074 | 794.81 ± 1.1 | 0.2666 ± 0.071 | 789.78 ± 1.2 | 0.2601 ± 0.07 | 784.32 ± 1.2 | 0.2545 ± 0.069 | – |
